Biological target: T1, human recombinant Yes [a.a. 2–543 (end)] (Homo sapiens, UniProt P07947)
T1 construct: human recombinant Yes [a.a; 2–543 (end)]; purchased BPS Bioscience 40488
Assay: ADP-Glo kinase assay, inhibition rates of Yes phosphorylation activity (first and second screening)
Assay type: biochemical
Details: 10 μmol L−1 compound; for First screening IR (inhibition rate): mean of n = 4 wells; for Second screening IR (inhibition rate): dissolved from fresh powder, n = 4
Method in brief: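 ADP-Glo luminescence measured inhibition of human recombinant Yes (a.a. 2–543) phosphorylation activity. In the first screen, each compound ran in 4 wells and inhibition rates were averaged. The second screen retested hits as compounds dissolved from fresh powder.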

T1 sequence (P07947 2-543): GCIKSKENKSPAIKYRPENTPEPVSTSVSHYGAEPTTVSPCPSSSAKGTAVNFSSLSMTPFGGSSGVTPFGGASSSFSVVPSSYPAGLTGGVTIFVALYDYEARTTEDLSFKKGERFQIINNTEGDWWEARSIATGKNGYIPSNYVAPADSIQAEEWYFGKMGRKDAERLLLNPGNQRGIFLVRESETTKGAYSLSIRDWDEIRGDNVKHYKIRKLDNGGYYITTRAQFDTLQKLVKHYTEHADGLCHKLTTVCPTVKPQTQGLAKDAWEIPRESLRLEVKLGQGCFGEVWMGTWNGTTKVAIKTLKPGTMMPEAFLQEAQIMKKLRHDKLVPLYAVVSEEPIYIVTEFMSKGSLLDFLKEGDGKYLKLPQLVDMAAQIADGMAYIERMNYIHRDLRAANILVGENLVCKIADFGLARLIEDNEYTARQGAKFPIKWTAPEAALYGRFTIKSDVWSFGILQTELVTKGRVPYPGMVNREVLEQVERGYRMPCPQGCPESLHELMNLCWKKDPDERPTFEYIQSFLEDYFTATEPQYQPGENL

SMILES	First screening IR (inhibition rate)	Second screening IR (inhibition rate)
Cc1ccc(CNc2nc(-c3ccc(O)c(C(N)=O)c3)cs2)cc1 [Compound Z48851233]	10%	–
COc1ccc(Nc2nc(-c3ccc(Cl)s3)cs2)cc1 [Compound Z48857068]	4%	–
Cl.Fc1ccc(-c2cc(-c3ccccc3)c3cc(Cl)ccc3n2)cc1 [Compound Z48950786]	-4%	–
COc1cccc(-c2cc(-c3ccccc3)c3cc(Cl)ccc3n2)c1.Cl [Compound Z48950797]	1%	–
Cc1ccc(-c2cc(-c3ccccc3)c3cc(Cl)ccc3n2)cc1.Cl [Compound Z48950811]	59%	-7%
Cc1c(-c2ccccc2)nc2ccc(Cl)cc2c1-c1ccccc1.Cl [Compound Z48950813]	20%	–
Cl.Oc1ccc(-c2cc(-c3ccccc3)c3cc(Cl)ccc3n2)cc1 [Compound Z48950817]	51%	-2%
Cl.Clc1ccc(-c2cc(-c3ccccc3)c3cc(Cl)ccc3n2)cc1 [Compound Z48950819]	36%	-13%
Cl.N#Cc1ccc(-c2cc(-c3ccccc3)c3cc(Cl)ccc3n2)cc1 [Compound Z48950825]	58%	–
Cc1c(-c2ccc(O)cc2)nc2ccc(Cl)cc2c1-c1ccccc1.Cl [Compound Z48950829]	33%	14%
Cc1ccc(O)c(-c2cc(-c3ccccc3)c3cc(Cl)ccc3n2)c1.Cl [Compound Z48950854]	-11%	–
Cl.Oc1ccccc1-c1cc(-c2ccccc2)c2cc(Cl)ccc2n1 [Compound Z48950876]	3%	–
Cl.Fc1ccc(-c2nc3ccc(Cl)cc3c(-c3ccccc3)c2CCCl)cc1 [Compound Z48950878]	10%	–
Cl.Fc1ccccc1-c1cc(-c2ccccc2)c2ccccc2n1 [Compound Z48951009]	5%	–
Cl.Fc1ccc(-c2cc(-c3ccccc3)c3ccccc3n2)cc1 [Compound Z48951014]	18%	–

Next, values leading:

First screening IR (inhibition rate)	Second screening IR (inhibition rate)	SMILES
-6%	–	COc1cccc(-c2cc(-c3ccccc3)c3ccccc3n2)c1.Cl [Compound Z48951025]
5%	–	Brc1ccc(-c2cc(-c3ccccc3)c3ccccc3n2)cc1.Cl [Compound Z48951036]
11%	–	Cc1ccc(-c2cc(-c3ccccc3)c3ccccc3n2)cc1.Cl [Compound Z48951039]
24%	–	Cl.Oc1ccc(-c2cc(-c3ccccc3)c3ccccc3n2)cc1 [Compound Z48951045]
8%	–	Cl.Clc1ccc(-c2cc(-c3ccccc3)c3ccccc3n2)cc1 [Compound Z48951047]
3%	–	COc1ccccc1-c1cc(-c2ccccc2)c2ccccc2n1.Cl [Compound Z48951051]
4%	–	Cl.Fc1cccc(F)c1-c1cc(-c2ccccc2)c2ccccc2n1 [Compound Z48951059]
4%	–	Cc1c(-c2ccc(OC(F)F)cc2)nc2ccccc2c1-c1ccccc1.Cl [Compound Z48951073]
1%	–	Cc1ccc(O)c(-c2cc(-c3ccccc3)c3ccccc3n2)c1.Cl [Compound Z48951082]
-2%	–	Cc1c(-c2ccccc2)nc2ccc(Cl)cc2c1-c1ccccc1Cl.Cl [Compound Z48951725]
10%	–	Cl.Oc1ccc(-c2cc(-c3ccccc3Cl)c3cc(Cl)ccc3n2)cc1 [Compound Z48951729]

— PMC5607274, “An iterative compound screening contest method for identifying target protein inhibitors using the tyrosine-protein kinase Yes” (Scientific Reports, 2017)
